Measurements as given in patent US11655217B2, “Pyrazole MAGL inhibitors” (H. Lundbeck A/S, priority 2017, dated 2023).

Biological target: MAGL (Mus musculus (Mouse), UniProt O35678)
Test: Mouse brain proteomes from inhibitor treated mice (oral gavage, sacrificed 4 h after administration, ABPP analysis)
Conditions: 5 mg/kg oral gavage
Procedure: Preparation of Mouse Brain Proteomes from Inhibitor Treated Mice.
Inhibitors were administered to wild-type C57Bl/6J by oral gavage in a vehicle of polyethylene glycol.

Sequence of MAGL (O35678 whole entry): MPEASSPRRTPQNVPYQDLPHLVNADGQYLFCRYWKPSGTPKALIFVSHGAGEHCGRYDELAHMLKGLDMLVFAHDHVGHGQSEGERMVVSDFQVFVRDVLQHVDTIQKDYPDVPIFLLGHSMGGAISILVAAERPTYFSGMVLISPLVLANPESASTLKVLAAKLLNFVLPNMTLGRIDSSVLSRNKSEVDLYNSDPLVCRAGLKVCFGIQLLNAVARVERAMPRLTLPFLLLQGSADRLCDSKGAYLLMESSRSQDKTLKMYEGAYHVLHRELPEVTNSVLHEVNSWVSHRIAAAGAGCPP

SMILES | MAGL % inh. 5 mg/kg (mouse)
O=C(O)c1nn(C(=O)N2CCC3(CCN(Cc4cccc(Cl)c4C(F)(F)F)C3)CC2)cc1Cl [Example 26, 4-Chloro-1-(2-(3-chloro-2-(trifluoromethyl)benzyl)-2,8-diazaspiro[4.5]decane-8-carbonyl)-1H-pyrazole-3-carboxylic Acid] | D (% inhibition is greater than or equal to 0% and less than 25%)
NC(=O)c1ccn(C(=O)N2CC3CN(Cc4ccc(C5(C(=O)O)CCOCC5)cc4C(F)(F)F)CC3C2)n1 (centres unmarked) [Example 35, 4-(4-((5-(3-carbamoyl-1H-pyrazole-1-carbonyl)hexahydropyrrolo[3,4-c]pyrrol-2(1H)-yl)methyl)-3-(trifluoromethyl)phenyl)tetrahydro-2H-pyran-4-carboxylic acid] | D (% inhibition is greater than or equal to 0% and less than 25%)
CC(C)c1cccc(O[C@H]2C[C@@H]3CN(C(=O)n4ccc(C(=O)O)n4)C[C@@H]3C2)c1 [Example 220, 1-(trans-5-(3-isopropylphenoxy)ocatahydrocyclo-penta[c]pyrrole-2-carbonyl)-1H-pyrazole-3-carboxylic acid] | C (% inhibition is greater than or equal to 25% and less than 50%)
O=C(O)c1ccn(C(=O)N2C[C@H]3C[C@H](Oc4cc(Cl)cc(Cl)c4)C[C@H]3C2)n1 [Example 230, 1-(trans-5-(3,5-dichlorophenoxy)octahydrocyclo-penta[c]pyrrole-2-carbonyl)-1H-pyrazole-3-carboxylic acid] | D (% inhibition is greater than or equal to 0% and less than 25%)
O=C(O)c1ccn(C(=O)N2C[C@H]3C[C@H](Oc4cccc(-c5cccnc5)c4)C[C@H]3C2)n1 [Example 241, 1-(trans-5-(3-(pyridin-3-yl)phenoxy)octa-hydrocyclopenta-[c]pyrrole-2-carbonyl)-1H-pyrazole-3-carboxylic acid] | D (% inhibition is greater than or equal to 0% and less than 25%)
Cc1cc(-c2ccccc2)ccc1CN1CCN(C(=O)n2ccc(C(=O)O)n2)[C@H](C)C1 [Example 245, (R)-1-(2-methyl-4-((3-methyl-[1,1′-biphenyl]-4-yl)methyl)piperazine-1-carbonyl)-1H-pyrazole-3-carboxylic acid] | D (% inhibition is greater than or equal to 0% and less than 25%)
Cc1ccc(Oc2cccc(CN3CCN(C(=O)n4ccc(C(=O)O)n4)CC3)c2)cc1 [Example 251, 1-(4-(3-(p-tolyloxy)benzyl)piperazine-1-carbonyl)-1H-pyrazole-3-carboxylic acid] | D (% inhibition is greater than or equal to 0% and less than 25%)
Cc1cn(C(=O)N2C[C@H]3C[C@H](OCc4cc(F)cc(Cl)c4)C[C@H]3C2)nc1C(=O)O [Example 252, 1-(trans-5-((3-chloro-5-fluorobenzyl)oxy)octahydrocyclo-penta[c]pyrrole-2-carbonyl)-4-methyl-1H-pyrazole-3-carboxylic acid] | D (% inhibition is greater than or equal to 0% and less than 25%)
C[C@@H]1C[C@H](N(C)Cc2cccc(C(F)(F)F)c2)CCN1C(=O)n1ccc(C(N)=O)n1 [Example 257, 1-((2R,4R)-2-methyl-4-(methyl(3-(trifluoromethyl)benzyl)amino)piperidine-1-carbonyl)-1H-pyrazole-3-carboxamide] | A (% inhibition is greater than or equal to 75%)
C[C@@H]1C[C@@H](N(C)Cc2cccc(C(F)(F)F)c2)CCN1C(=O)n1ccc(C(N)=O)n1 [Example 260, 1-((2R,4S)-2-methyl-4-(methyl(3-(trifluoromethyl)benzyl)amino)piperidine-1-carbonyl)-1H-pyrazole-3-carboxamide] | A (% inhibition is greater than or equal to 75%)
C[C@@H]1CN(Cc2ccc(-c3ccccc3)cc2Cl)CCN1C(=O)n1ccc(C(=O)O)n1 [Example 291, (R)-1-(4-((3-chloro-[1,1′-biphenyl]-4-yl)methyl)-2-methylpiperazine-1-carbonyl)-1H-pyrazole-3-carboxylic acid] | C (% inhibition is greater than or equal to 25% and less than 50%)
O=C(O)c1ccn(C(=O)N2CCC(Oc3ccc(C(F)(F)F)cc3N3CCCC3)CC2)n1 [Example 307, 1-(4-(2-(pyrrolidin-1-yl)-4-(trifluoromethyl)phenoxy)piperidine-1-carbonyl)-1H-pyrazole-3-carboxylic acid] | D (% inhibition is greater than or equal to 0% and less than 25%)
O=C(O)c1ccn(C(=O)N2CCC(Oc3cc(N4CCCC4)cc(C(F)(F)F)c3)CC2)n1 [Example 308, 1-(4-(3-(pyrrolidin-1-yl)-5-(trifluoromethyl)phenoxy)piperidine-1-carbonyl)-1H-pyrazole-3-carboxylic acid] | D (% inhibition is greater than or equal to 0% and less than 25%)
C[C@H]1CN(Cc2cccc(Oc3ccc(Cl)cc3)c2)CCN1C(=O)n1ccc(C(=O)O)n1 [Example 311, (S)-1-(4-(3-(4-chlorophenoxy)benzyl)-2-methylpiperazine-1-carbonyl)-1H-pyrazole-3-carboxylic acid] | D (% inhibition is greater than or equal to 0% and less than 25%)
C[C@@H]1CN(Cc2ccc(C(F)(F)F)cc2N2CCCC2)CCN1C(=O)n1ccc(C(=O)O)n1 [Example 327, (R)-1-(2-methyl-4-(2-(pyrrolidin-1-yl)-4-(trifluoromethyl)benzyl)piperazine-1-carbonyl)-1H-pyrazole-3-carboxylic acid] | D (% inhibition is greater than or equal to 0% and less than 25%)
C[C@H]1CN(Cc2ccc(C(F)(F)F)cc2N2CCCC2)CCN1C(=O)n1ccc(C(=O)O)n1 [Example 328, (S)-1-(2-methyl-4-(2-(pyrrolidin-1-yl)-4-(trifluoromethyl)benzyl)piperazine-1-carbonyl)-1H-pyrazole-3-carboxylic acid] | D (% inhibition is greater than or equal to 0% and less than 25%)
O=C(O)c1ccn(C(=O)N2CCC3(CCN(Cc4cc(Cl)cc(Cl)c4Cl)C3)CC2)n1 [Example 337, 1-(2-(2,3,5-trichlorobenzyl)-2,8-diazaspiro[4.5]decane-8-carbonyl)-1H-pyrazole-3-carboxylic acid] | D (% inhibition is greater than or equal to 0% and less than 25%)
C[C@H]1CN(Cc2cc(F)cc(Oc3ccc(Cl)cc3)c2)CCN1C(=O)n1ccc(C(=O)O)n1 [Example 347, (S)-1-(4-(3-(4-chlorophenoxy)-5-fluorobenzyl)-2-methylpiperazine-1-carbonyl)-1H-pyrazole-3-carboxylic acid] | D (% inhibition is greater than or equal to 0% and less than 25%)
C[C@@H]1CC[C@@H](C)N1c1cc(C(F)(F)F)ccc1CN1CCN(C(=O)n2ccc(C(=O)O)n2)CC1 [Example 359, 1-(4-(2-((2R,5R)-2,5-dimethylpyrrolidin-1-yl)-4-(trifluoromethyl)benzyl)piperazine-1-carbonyl)-1H-pyrazole-3-carboxylic acid] | D (% inhibition is greater than or equal to 0% and less than 25%)
C[C@H]1CC[C@H](C)N1c1cc(C(F)(F)F)ccc1CN1CCN(C(=O)n2ccc(C(=O)O)n2)CC1 [Example 360, 1-(4-(2-((2S,5S)-2,5-dimethylpyrrolidin-1-yl)-4-(trifluoromethyl)benzyl)piperazine-1-carbonyl)-1H-pyrazole-3-carboxylic acid] | D (% inhibition is greater than or equal to 0% and less than 25%)
CN(Cc1cc(N2CCCC2)cc(C(F)(F)F)c1)C1(C)CCN(C(=O)n2ccc(C(=O)O)n2)CC1 [Example 381, 1-(4-methyl-4-(methyl(3-(pyrrolidin-1-yl)-5-(trifluoromethyl)benzyl)amino)piper-idine-1-carbonyl)-1H-pyrazole-3-carboxylic acid] | D (% inhibition is greater than or equal to 0% and less than 25%)
CN(Cc1cccc(C(F)(F)F)c1N1CCCC1)C1(C)CCN(C(=O)n2ccc(C(=O)O)n2)CC1 [Example 382, 1-(4-methyl-4-(methyl(2-(pyrrolidin-1-yl)-3-(trifluoromethyl)benzyl)amino)piper-idine-1-carbonyl)-1H-pyrazole-3-carboxylic acid] | D (% inhibition is greater than or equal to 0% and less than 25%)
CN(Cc1cc(C(F)(F)F)ccc1N1CCCC1)C1(C)CCN(C(=O)n2ccc(C(=O)O)n2)CC1 [Example 384, 1-(4-methyl-4-(methyl(2-(pyrrolidin-1-yl)-5-(trifluoromethyl)benzyl)amino)piper-idine-1-carbonyl)-1H-pyrazole-3-carboxylic acid] | D (% inhibition is greater than or equal to 0% and less than 25%)
CN(Cc1ccc(C(F)(F)F)c(N2CCCC2)c1)C1(C)CCN(C(=O)n2ccc(C(=O)O)n2)CC1 [Example 385, 1-(4-methyl-4-(methyl(3-(pyrrolidin-1-yl)-4-(trifluoromethyl)benzyl)amino)piper-idine-1-carbonyl)-1H-pyrazole-3-carboxylic acid] | D (% inhibition is greater than or equal to 0% and less than 25%)
O=C(O)c1nn(C(=O)N2CCC3(CCN(Cc4cc(Cl)cc(C(F)(F)F)c4)C3)CC2)cc1Cl [Example 388, 4-chloro-1-(2-(3-chloro-5-(trifluoromethyl)benzyl)-2,8-diazaspiro[4.5]decane-8-carbonyl)-1H-pyrazole-3-carboxylic acid] | D (% inhibition is greater than or equal to 0% and less than 25%)
C[C@@H]1CN(Cc2ccc(C(F)(F)F)cc2N2C3CCC2COC3)CCN1C(=O)n1ccc(C(=O)O)n1 [Example 393, 1-((2R)-4-(2-(3-oxa-8-azabicyclo[3.2.1]octan-8-yl)-4-(trifluoromethyl)benzyl)-2-methylpiperazine-1-carbonyl)-1H-pyrazole-3-carboxylic acid] | D (% inhibition is greater than or equal to 0% and less than 25%)
